Values after ≈ are worked out from the molar mass of the structure shown. Values joined by “and” are separate entries in the source; they are usually repeats but may differ in a detail not shown here. Equal values may be shown once.

What all share (type): functional
Experiment [1] relates to Mycobacterium avium. In words: Antitubercular activity against Mycobacterium avium infected in C57BL/6J mouse assessed as reduction of CFU counts in spleen at 25 mg/kg, po administered one month post-infection five times weekly for 2 months (reference value: 9.4 +/- 0.2 log10CFU).
Experiment [2] concerns Mycobacterium avium. In words: Antitubercular activity against Mycobacterium avium infected in C57BL/6J mouse assessed as reduction of CFU counts in spleen at 150 mg/kg, sc administered one month post-infection five times weekly for 1 month (reference value: 7.4 +/- 1.7 log10CFU). The conditions noted are these: route subcutaneous.
For experiment [3], the system named is Mycobacterium avium. In words: Antitubercular activity against Mycobacterium avium infected in C57BL/6J mouse assessed as reduction of CFU counts in spleen at 150 mg/kg, sc administered one month post-infection five times weekly for 4 months (reference value: 8.9 +/- 0.3 log10CFU). The conditions noted are these: route subcutaneous.
Experiment [4] concerns Mycobacterium avium. In words: Antitubercular activity against Mycobacterium avium infected in C57BL/6J mouse assessed as reduction of CFU counts in spleen at 200 mg/kg, po administered one month post-infection five times weekly for 3 months (reference value: 7.9 +/- 0.7 log10CFU).
Experiment [5] relates to Mycobacterium avium. The experiment in a line: Antitubercular activity against Mycobacterium avium infected in C57BL/6J mouse assessed as reduction of CFU counts in spleen at 150 mg/kg, sc administered one month post-infection five times weekly for 3 months (reference value: 7.9 +/- 0.7 log10CFU). The conditions noted are these: route subcutaneous.
Experiment [6] has as its system Mycobacterium avium. In words: Antitubercular activity against Mycobacterium avium infected in C57BL/6J mouse assessed as reduction of CFU counts in spleen at 25 mg/kg, po administered one month post-infection five times weekly for 4 months (reference value: 8.9 +/- 0.3 log10CFU).
Experiment [7] concerns Mycobacterium avium. In words: Antitubercular activity against Mycobacterium avium infected in C57BL/6J mouse assessed as reduction of CFU counts in spleen at 200 mg/kg, po administered one month post-infection five times weekly for 2 months (reference value: 9.4 +/- 0.2 log10CFU).
Experiment [8] concerns Mycobacterium tuberculosis. In words: Antimicrobial activity against Mycobacterium tuberculosis.
Experiment [9] relates to Mycobacterium avium. In words: Antitubercular activity against Mycobacterium avium infected in C57BL/6J mouse assessed as reduction of CFU counts in spleen at 25 mg/kg, po administered one month post-infection five times weekly for 1 month (reference value: 7.4 +/- 1.7 log10CFU).
In experiment [10] the test system is Mycobacterium avium. The experiment in a line: Antitubercular activity against Mycobacterium avium infected in C57BL/6J mouse assessed as reduction of CFU counts in spleen at 25 mg/kg, po administered one day post-infection five times weekly for 1 month (reference value: 8.0 +/- 0.9 log10CFU).
Experiment [11] concerns Mycobacterium avium. The experiment in a line: Antimicrobial activity against Mycobacterium avium.
Experiment [12] relates to Mycobacterium avium. In words: Antitubercular activity against Mycobacterium avium infected in C57BL/6J mouse assessed as reduction of CFU counts in spleen at 200 mg/kg, po administered one month post-infection five times weekly for 4 months (reference value: 8.9 +/- 0.3 log10CFU).
In experiment [13] the test system is Mycobacterium avium. The experiment in a line: Antitubercular activity against Mycobacterium avium infected in C57BL/6J mouse assessed as reduction of CFU counts in spleen at 150 mg/kg, sc administered one month post-infection five times weekly for 2 months (reference value: 9.4 +/- 0.2 log10CFU). As to conditions: route subcutaneous.
For experiment [14], the system named is Mycobacterium avium. The experiment in a line: Antitubercular activity against Mycobacterium avium infected in C57BL/6J mouse assessed as reduction of CFU counts in spleen at 200 mg/kg, po administered one day post-infection five times weekly for 1 month (reference value: 8.0 +/- 0.9 log10CFU).
Experiment [15] relates to Mycobacterium avium. In words: Antitubercular activity against Mycobacterium avium infected in C57BL/6J mouse assessed as reduction of CFU counts in spleen at 25 mg/kg, po administered one month post-infection five times weekly for 3 months (reference value: 7.9 +/- 0.7 log10CFU).
The test system of experiment [16] is Mycobacterium avium. In words: Antitubercular activity against Mycobacterium avium infected in C57BL/6J mouse assessed as reduction of CFU counts in spleen at 200 mg/kg, po administered one month post-infection five times weekly for 1 month (reference value: 7.4 +/- 1.7 log10CFU).

On to `NCC[C@H](O)C(=O)N[C@@H]1C[C@H](N)[C@@H](O[C@H]2O[C@H](CN)[C@@H](O)[C@H](O)[C@H]2O)[C@H](O)[C@H]1O[C@H]1O[C@H](CO)[C@@H](O)[C@H](N)[C@H]1O` [AMIKACIN], for which the log10cfu in the experiment on Mycobacterium avium [1] came out at 6.7; in the experiment on Mycobacterium avium [2] it was 5.9; in the experiment with Mycobacterium avium [3] it was 3.5; in the experiment with Mycobacterium avium [4], 7.2.
One may read the MIC as the smallest concentration in the dilution series that meets the test's criterion for growth inhibition. Higher therefore signals a need for much substance. With `COc1nc2ccc(Br)cc2cc1[C@@H](c1ccccc1)[C@@](O)(CCN(C)C)c1cccc2ccccc12` [BEDAQUILINE], the log10cfu with Mycobacterium avium [5] stood at 6.6; with Mycobacterium avium [6] it was 6.5; in the experiment with Mycobacterium avium [7], 7.7; in the experiment with Mycobacterium avium [9], 6.5; with Mycobacterium avium [10], 5.4. The MIC in [8] is 0.06 µg/mL (≈ 0.108 µM); in the experiment on Mycobacterium avium [11], 0.007 µg/mL and 0.015 µg/mL.
With `CC[C@H]1OC(=O)[C@H](C)[C@@H](O[C@H]2C[C@@](C)(OC)[C@@H](O)[C@H](C)O2)[C@H](C)[C@@H](O[C@@H]2O[C@H](C)C[C@H](N(C)C)[C@H]2O)[C@](C)(OC)C[C@@H](C)C(=O)[C@H](C)[C@@H](O)[C@]1(C)O` [CLARITHROMYCIN], the log10cfu with Mycobacterium avium [12] is 7.2; in the experiment on Mycobacterium avium [13] it was 5; with Mycobacterium avium [14] it was 6; with Mycobacterium avium [15], 6.2; in the experiment with Mycobacterium avium [16], 6.6.

For the origin of these results see ChEMBL document CHEMBL1649264, “ATP synthase inhibition of Mycobacterium avium is not bactericidal” (2009).
